Earlier results as cited in publication PMC9653995, “New Positive TRPC6 Modulator Penetrates Blood–Brain Barrier, Eliminates Synaptic Deficiency and Restores Memory Deficit in 5xFAD Mice” (International Journal of Molecular Sciences, 2022).

System: TRPC3
Details: cited from earlier work

For O=C(c1cc2c(s1)CCCCC2)N1CCC(n2c(=O)[nH]c3ccccc32)CC1 [GSK1702934A, reference compound], the “activation of TRPC3” value is listed as “activate TRPC3”.
